Measured values: patent publication US20240400553A1, “AMINE BASED MATRIPTASE 2 INHIBITORS AND USES THEREOF” (Disc Medicine, Inc., priority 2023, published 2024)

Each molecule was assayed against T1, Human Recombinant Matriptase 2 (Homo sapiens, UniProt Q8IU80) (assay: Matriptase 2 inhibition, fluorescence based assay (Method I)). Conditions: Table A; Ki of Matriptase-2; read-out: Mat-2 Ki.
T1 construct: made in house
T1 sequence (Q8IU80 1-811): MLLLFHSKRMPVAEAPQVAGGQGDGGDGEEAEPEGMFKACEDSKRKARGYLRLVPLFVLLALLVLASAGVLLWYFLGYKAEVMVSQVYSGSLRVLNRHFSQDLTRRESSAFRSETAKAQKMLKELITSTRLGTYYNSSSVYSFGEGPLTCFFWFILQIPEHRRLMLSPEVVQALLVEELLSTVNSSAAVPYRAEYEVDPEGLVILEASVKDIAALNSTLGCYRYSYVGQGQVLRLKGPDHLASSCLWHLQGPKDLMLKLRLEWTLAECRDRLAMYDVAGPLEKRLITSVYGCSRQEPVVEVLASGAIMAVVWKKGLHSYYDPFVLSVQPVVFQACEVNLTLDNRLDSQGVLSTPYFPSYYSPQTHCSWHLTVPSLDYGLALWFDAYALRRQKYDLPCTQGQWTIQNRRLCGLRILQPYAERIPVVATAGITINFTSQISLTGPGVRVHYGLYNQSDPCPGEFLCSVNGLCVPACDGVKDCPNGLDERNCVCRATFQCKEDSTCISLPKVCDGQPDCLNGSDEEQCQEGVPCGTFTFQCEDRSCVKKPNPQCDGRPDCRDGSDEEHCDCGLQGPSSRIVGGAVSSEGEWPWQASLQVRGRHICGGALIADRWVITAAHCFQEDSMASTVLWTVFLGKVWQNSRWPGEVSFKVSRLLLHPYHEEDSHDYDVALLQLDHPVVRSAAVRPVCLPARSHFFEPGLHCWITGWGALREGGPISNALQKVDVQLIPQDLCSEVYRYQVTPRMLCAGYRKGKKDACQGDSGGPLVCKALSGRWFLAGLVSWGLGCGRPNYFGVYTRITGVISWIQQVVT
Type: biochemical
Summary of the method: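 In-house recombinant enzyme (3.5 nM), preincubated 30 min with compound, then Boc-Gln-Ala-Arg-AMC substrate (62 μM) in 50 mM Tris pH 7.5, 150 mM NaCl, 0.01% gelatin, 1% DMSO, 25 °C. Fluorescence (Ex 360/Em 480 nm) read 60 min after substrate; IC50 from variable-slope sigmoidal fit of % inhibition.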

SMILES	Ki [nM]
NCc1ccc2cc(C(=O)OCCN3CCCCC3)n(Cc3cc(NS(=O)(=O)Cc4ccccc4)cc4ccccc34)c2n1 [Compound 65, 2-(piperidin-1-yl)ethyl 6-(aminomethyl)-1-{[3-(phenylmethanesulfon-amido)naphthalen-1-yl]-methyl}-1H-pyrrolo[2,3-b]pyridine-2-carboxylate]	≤ 100
CNC(=O)c1cc2ccc(CN)nc2n1Cc1cc(NS(=O)(=O)Cc2ccccc2)cc2ccccc12 [Compound 66]	≤ 100
CC(=O)N1CCC(COC(=O)c2cc3ccc(CN)nc3n2Cc2cc(NS(=O)(=O)Cc3ccccc3)cc3ccccc23)CC1 [Compound 67, (1-acetylpiperidin-4-yl)-methyl 6-(aminomethyl)-1-{[3-(phenylmethane-sulfonamido)naphthalen-1-yl]methyl}-1H-pyr-rolo[2,3-b]pyridine-2-carboxylate]	≤ 100
Cn1nccc1COC(=O)c1cc2ccc(CN)nc2n1Cc1cc(NS(=O)(=O)Cc2ccccc2)cc2ccccc12 [Compound 68, (1-methyl-1H-pyrazol-5-yl)methyl 6-(amino-methyl)-1-{[3-(phenyl-methanesulfonamido)-naphthalen-1-yl]meth-yl}-1H-pyrrolo[2,3-b]-pyridine-2-carboxylate]	≤ 100
NCc1ccc2cc(C(=O)OCCN3CCCC3)n(Cc3cc(NS(=O)(=O)Cc4ccccc4)cc4ccccc34)c2n1 [Compound 69, 2-(pyrrolidin-1-yl)ethyl 6-(aminomethyl)-1-{[3-(phenylmethanesulfon-amido)naphthalen-1-yl]-methyl}-1H-pyrrolo[2,3-b]pyridine-2-carboxylate]	≤ 100
CC(C)n1cncc1COC(=O)c1cc2ccc(CN)nc2n1Cc1cc(NS(=O)(=O)Cc2ccccc2)cc2ccccc12 [Compound 70, [1-(propan-2-yl)-1H-imidazol-5-yl]methyl 6-(aminomethyl)-1-{[3-(phenylmethanesulfon-amido)naphthalen-1-yl]-methyl}-1H-pyrrolo[2,3-b]pyridine-2-carboxylate]	≤ 100
CN(C)CCNC(=O)c1cc2ccc(CN)nc2n1Cc1cc(NS(=O)(=O)Cc2ccccc2)cc2ccccc12 [Compound 71, 6-(aminomethyl)-N-[2-(dimethylamino)ethyl]-1-{[3-(phenylmethane-sulfonamido)naphthalen-1-yl]methyl}-1H-pyr-rolo[2,3-b]pyridine-2-carboxamide]	≤ 100
NCc1ccc2cc(C(=O)OC[C@H]3CCCCN3)n(Cc3cc(NS(=O)(=O)Cc4ccccc4)cc4ccccc34)c2n1 [Compound 72, [(2R)-piperidin-2-yl]-methyl 6-(aminomethyl)-1-{[3-(phenylmethane-sulfonamido)naphthalen-1-yl]methyl}-1H-pyr-rolo[2,3-b]pyridine-2-carboxylate]	≤ 100
CC(C)n1ccnc1COC(=O)c1cc2ccc(CN)nc2n1Cc1cc(NS(=O)(=O)Cc2ccccc2)cc2ccccc12 [Compound 74, [1-(propan-2-yl)-1H-imidazol-2-yl]methyl 6-(aminomethyl)-1-{[3-(phenylmethanesulfon-amido)naphthalen-1-yl]-methyl}-1H-pyrrolo-[2,3-b]pyridine-2-car-boxylate]	≤ 100
COC(=O)NCCOC(=O)c1cc2ccc(CN)nc2n1Cc1cc(NS(=O)(=O)Cc2ccccc2)cc2ccccc12 [Compound 75, 2-[(methoxycarbonyl)-amino]ethyl 6-(amino-methyl)-1-{[3-(phenyl-methanesulfonamido)-naphthalen-1-yl]methyl}-1H-pyrrolo[2,3-b]pyr-idine-2-carboxylate]	≤ 100
CNCCNC(=O)c1cc2ccc(CN)nc2n1Cc1cc(NS(=O)(=O)Cc2ccccc2)cc2ccccc12 [Compound 76, 6-(aminomethyl)-N-[2-(methylamino)ethyl]-1-{[3-(phenylmethane-sulfonamido)naphthalen-1-yl]methyl}-1H-pyr-rolo[2,3-b]pyridine-2-carboxamide]	≤ 100
NCc1ccc2cc(C(=O)OCCN3CCS(=O)(=O)CC3)n(Cc3cc(NS(=O)(=O)Cc4ccccc4)cc4ccccc34)c2n1 [Compound 77, 2-(1,1-dioxo-1-thio-morpholin-4-yl)ethyl 6-(aminomethyl)-1-{[3-(phenylmethanesulfon-amido)naphthalen-1-yl]-methyl}-1H-pyrrolo[2,3-b]pyridine-2-carboxylate]	≤ 100
NCc1ccc2cc(C(=O)NCCS(N)(=O)=O)n(Cc3cc(NS(=O)(=O)Cc4ccccc4)cc4ccccc34)c2n1 [Compound 78, 6-(aminomethyl)-1-{[3-(phenylmethanesulfon-amido)naphthalen-1-yl]-methyl}-N-(2-sulfamoyl-ethyl)-1H-pyrrolo[2,3-b]pyridine-2-carboxamide]	≤ 100
NCc1ccc2cc(C(=O)OCC3CCOCC3)n(Cc3cc(NS(=O)(=O)Cc4ccccc4)cc4ccccc34)c2n1 [Compound 79, (oxan-4-yl)methyl 6-(aminomethyl)-1-{[3-(phenylmethanesulfon-amido)naphthalen-1-yl]-methyl}-1H-pyrrolo[2,3-b]pyridine-2-carboxylate]	≤ 100
CN(C)C(=O)OCCOC(=O)c1cc2ccc(CN)nc2n1Cc1cc(NS(=O)(=O)Cc2ccccc2)cc2ccccc12 [Compound 80, 2-[(dimethylcarbamoyl)-oxy]ethyl 6-(aminometh-yl)-1-{[3-phenylmethane-sulfonamido)naphthalen-1-yl]methyl}-1H-pyr-rolo[2,3-b]pyridine-2-carboxylate]	≤ 100
NCc1ccc2cc(C(=O)OCc3cccnc3)n(Cc3cc(NS(=O)(=O)Cc4ccccc4)cc4ccccc34)c2n1 [Compound 81, (pyridin-3-yl)methyl 6-(aminomethyl)-1-{[3-(phenylmethanesulfon-amido)naphthalen-1-yl]-methyl}-1H-pyrrolo[2,3-b]pyridine-2-carboxylate]	≤ 100

Further lines, results first:

Ki [nM]	SMILES
≤ 100	NCc1ccc2cc(C(=O)OCC3(CN)CC3)n(Cc3cc(NS(=O)(=O)Cc4ccccc4)cc4ccccc34)c2n1 [Compound 55, [1-(aminomethyl)cyclo-propyl]methyl 6-(amino-methyl)-1-{[3-(phenyl-methanesulfonamido)-naphthalen-1-yl]methyl}-1H-pyrrolo[2,3-b]pyr-idine-2-carboxylate]
≤ 100	NCc1ccc2cc(C(=O)OCCOCCN3CCCCC3)n(Cc3cc(NS(=O)(=O)Cc4ccccc4)cc4ccccc34)c2n1 [Compound 56, 2-[2-(piperidin-1-yl)-ethoxy]ethyl 6-(amino-methyl)-1-{[3-(phenyl-methanesulfonamido)-naphthalen-1-yl]methyl}-1H-pyrrolo[2,3-b]pyr-idine-2-carboxylate]
≤ 100	NCc1ccc2cc(C(N)=O)n(Cc3cc(NS(=O)(=O)Cc4ccccc4)cc4ccccc34)c2n1 [Compound 57, 6-(aminomethyl)-1-{[3-(phenylmethanesulfon-amido)naphthalen-1-yl]-methyl}-1H-pyrrolo[2,3-b]pyridine-2-carboxamide]
≤ 100	CN(C)CCOCCOC(=O)c1cc2ccc(CN)nc2n1Cc1cc(NS(=O)(=O)Cc2ccccc2)cc2ccccc12 [Compound 58, 2-[2-(dimethylamino)-ethoxy]ethyl 6-(amino-methyl)-1-{[3-(phenyl-methanesulfonamido)-naphthalen-1-yl]methyl}-1H-pyrrolo[2,3-b]pyr-idine-2-carboxylate]
≤ 100	NCc1ccc2cc(C(=O)OCC3CCN(C=O)CC3)n(Cc3cc(NS(=O)(=O)Cc4ccccc4)cc4ccccc34)c2n1 [Compound 59, (1-formylpiperidin-4-yl)-methyl 6-(aminomethyl)-1-{[3-(phenylmethane-sulfonamido)naphthalen-1-yl]methyl}-1H-pyr-rolo[2,3-b]pyridine-2-carboxylate]
≤ 100	NCc1ccc2cc(C(=O)NCCN3CCOCC3)n(Cc3cc(NS(=O)(=O)Cc4ccccc4)cc4ccccc34)c2n1 [Compound 60, 6-(aminomethyl)-N-[2-(morpholin-4-yl)ethyl]-1-{[3-(phenylmethane-sulfonamido)naphthalen-1-yl]methyl}-1H-pyr-rolo[2,3-b]pyridine-2-carboxamide]
≤ 100	Cn1ccc(COC(=O)c2cc3ccc(CN)nc3n2Cc2cc(NS(=O)(=O)Cc3ccccc3)cc3ccccc23)n1 [Compound 61, (1-methyl-1H-pyrazol-3-yl)methyl 6-(amino-methyl)-1-{[3-(phenyl-methanesulfonamido)-naphthalen-1-yl]methyl}-1H-pyrrolo[2,3-b]pyr-idine-2-carboxylate]
≤ 100	NCc1ccc2cc(C(=O)O)n(Cc3cc(NS(=O)(=O)Cc4ccccc4)cc4ccccc34)c2n1 [Compound 62, 6-(aminomethyl)-1-{[3-(phenylmethanesulfon-amido)naphthalen-1-yl]-methyl}-1H-pyrrolo[2,3-b]pyridine-2-carboxylic acid]
